Results: patent publication US20240376085A1 (Janssen Pharmaceutica NV, priority 2021, published 2024)

Key:
IL-17A : IL-17RA binding = target: T1, IL-17A : IL-17RA binding (Homo sapiens, UniProt Q16552, K93Q); assay: IL-17A(FLAG-tagged):IL-17RA(His-tagged) binding disruption Eu-HTRF assay, Protocol 1; conditions: FLAG-IL-17A 2.5 nM at 2x final concentration; average if tested more than once
T1 construct: Name: IL-17A-Flag
Summary of the method: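 IC50 came from a one-site competition fit of the acceptor/donor (665/620 nm) HTRF ratio. His-tagged IL-17RA, Eu-anti-FLAG and D2-anti-His were added after a 1 h rt compound preincubation with FLAG-tagged IL-17A dimer in PBS/0.01% Triton X-100, followed by 2 h at rt before reading.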

[1] = system: IL-17A-induced G-CSF production in human normal keratinocyte (NHK); assay: NHK assay: IL-17A-induced G-CSF production in normal human keratinocytes; assay type: cell-based; conditions: 24 h, IL-17A 5 ng/mL, average if tested more than once
Summary of the method: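 IC50 derives from G-CSF in supernatants, quantified by HTRF from a standard curve, with CellTiter-Glo viability compared to DMSO control. Before a 24 h, 37°C culture of normal human keratinocytes at 3000–4000 cells/well, compound dilutions were preincubated 1 h at rt with human IL-17A (5 ng/mL final), with 0.2% DMSO and 5% FBS.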

T1 sequence (Q16552 with tags, fused parts or gaps K93Q): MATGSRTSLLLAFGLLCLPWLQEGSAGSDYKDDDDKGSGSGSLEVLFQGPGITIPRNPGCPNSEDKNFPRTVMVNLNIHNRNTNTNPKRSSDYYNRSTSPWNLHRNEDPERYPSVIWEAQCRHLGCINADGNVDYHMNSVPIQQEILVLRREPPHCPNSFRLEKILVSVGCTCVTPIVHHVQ

| SMILES | IC50 (IL-17A : IL-17RA binding) [µM] | IC50 ([1]; Homo sapiens, Keratinocyte) [µM] | IC50 [1] [µM] |
| --- | --- | --- | --- |
| Cc1nonc1C(=O)N[C@@H](CC(C)(C)C(F)F)c1nc2ccc([C@H](NC(=O)CC3CC(F)(F)C3)C3CC3)cc2[nH]1 [Example 233, N—((S)-1-(6-((R)-Cyclopropyl(2-(3,3-difluorocyclobutyl)acetamido)methyl)-1H-benzo[d]imidazol-2-yl)-4,4-difluoro-3,3-dimethylbutyl)-4-methyl-1,2,5-oxadiazole-3-carboxamide] | < 0.05 | > 0.1 | – |
| Cc1nonc1C(=O)N[C@@H](CO[C@H](C)C(F)(F)F)c1nc2ccc([C@H](NC(=O)CC3CC(F)(F)C3)C3CC3)cc2[nH]1 (relative stereo) [Example 150, N—((R*)-1-(6-((R)-Cyclopropyl(2-(3,3-difluorocyclobutyl)acetamido)methyl)-1H-benzo[d]imidazol-2-yl)-2-(((R*)-1,1,1-trifluoropropan-2-yl)oxy)ethyl)-4-methyl-1,2,5-oxadiazole-3-carboxamide] | > 0.1 | > 0.1 | – |
| Cc1nonc1C(=O)N[C@H](c1nc2ccc([C@H](NC(=O)CC3CC(F)(F)C3)C3CC3)cc2[nH]1)C1CCC2(CC1)CC2 (stereo partly drawn) [Example 169, N—((S)-(6-((R)-Cyclopropyl(2-(3,3-difluorocyclobutyl)acetamido)methyl)-1H-benzo[d]imidazol-2-yl)(spiro[2.5]octan-6-yl)methyl)-4-methyl-1,2,5-oxadiazole-3-carboxamide] | < 0.05 | < 0.05 | – |
| CC(C)n1nccc1C(=O)N[C@H](c1nc2ccc([C@H](NC(=O)CC3CC(F)(F)C3)C3CC3)cc2[nH]1)C1CCCCO1 (single isomer, unassigned) [Example 253, N—((R)-(6-((R)-Cyclopropyl(2-(3,3-difluorocyclobutyl)acetamido)methyl)-1H-benzo[d]imidazol-2-yl)((R*)-tetrahydro-2H-pyran-2-yl)methyl)-1-isopropyl-1H-pyrazole-5-carboxamide] | > 0.1 | > 0.1 | – |
| COCCn1ncc(C(=O)N[C@H](c2nc3cc([C@@H](C)NC(=O)CCC(F)(F)F)ccc3[nH]2)C2CCC(F)(F)CC2)n1 [Example 14, N—[(S)-(4,4-Difluorocyclohexyl)-[6-[(1R)-1-(4,4,4-trifluorobutanoylamino)ethyl]-1H-benzimidazol-2-yl]methyl]-2-(2-methoxyethyl)triazole-4-carboxamide] | > 0.1 | > 0.1 | – |
| Cc1nonc1C(=O)N[C@@H](CC(C)(C)C(F)(F)F)c1nc2ccc([C@H](NC(=O)CC3CC3(F)F)C3CC3)cc2[nH]1 (single isomer, unassigned) [Example 183, N—((S)-1-(6-((R)-Cyclopropyl(2-((R*)-2,2-difluorocyclopropyl)acetamido)methyl)-1H-benzo[d]imidazol-2-yl)-4,4,4-trifluoro-3,3-dimethylbutyl)-4-methyl-1,2,5-oxadiazole-3-carboxamide] | < 0.05 | > 0.1 | – |
| C[C@@H](NC(=O)CCC(F)(F)F)c1ccc2[nH]c([C@@H](NC(=O)c3cnnn3CC(F)F)C3CCC(F)(F)CC3)nc2c1 [Example 38, N—[(S)-(4,4-Difluorocyclohexyl)-[6-[(1R)-1-(4,4,4-trifluorobutanoylamino)ethyl]-1H-benzimidazol-2-yl]methyl]-3-(2,2-difluoroethyl)triazole-4-carboxamide] | > 0.1 | > 0.1 | – |
| C[C@@H](NC(=O)CC(C(F)(F)F)C(F)(F)F)c1ccc2nc([C@@H](NC(=O)c3cccc(C#N)c3)C3CCC(F)(F)CC3)[nH]c2c1 [Example 132, 3-Cyano-N—((S)-(4,4-difluorocyclohexyl)(6-((R)-1-(4,4,4-trifluoro-3-(trifluoromethyl)butanamido)ethyl)-1H-benzo[d]imidazol-2-yl)methyl)benzamide] | > 0.1 | > 0.1 | – |
| CC(CC(=O)N[C@H](C)c1ccc2nc([C@@H](NC(=O)c3ccnn3CCC(F)(F)F)C3CCC(F)(F)CC3)[nH]c2c1)C(F)(F)F (single isomer, unassigned) [Example 134, N—((S)-(4,4-Difluorocyclohexyl)(6-((R)-1-((R*)-4,4,4-trifluoro-3-methylbutanamido)ethyl)-1H-benzo[d]imidazol-2-yl)methyl)-1-(3,3,3-trifluoropropyl)-1H-pyrazole-5-carboxamide] | > 0.1 | > 0.1 | – |
| Cc1nonc1C(=O)N[C@H](c1nc2ccc([C@H](NC(=O)CC3CC(F)(F)C3)C3CC3)cc2[nH]1)C1CCOC(C)(C)C1 (single isomer, unassigned) [Example 174, N—((S)-(6-((R)-Cyclopropyl(2-(3,3-difluorocyclobutyl)acetamido)methyl)-1H-benzo[d]imidazol-2-yl)((R*)-2,2-dimethyltetrahydro-2H-pyran-4-yl)methyl)-4-methyl-1,2,5-oxadiazole-3-carboxamide] | > 0.1 | – | 0.05 to 0.1 |

More lines, main results first:

| IC50 (IL-17A : IL-17RA binding) [µM] | SMILES | IC50 ([1]; Homo sapiens, Keratinocyte) [µM] | IC50 [1] [µM] |
| --- | --- | --- | --- |
| > 0.1 | Cn1nccc1C(=O)N[C@H](c1nc2cc(C(CC3CCC3)NC(=O)CCC(F)(F)F)ccc2[nH]1)C1CCC(F)(F)CC1 (single isomer, unassigned) [Example 47, N—((S)-(5-((R*)-2-Cyclobutyl-1-(4,4,4-trifluorobutanamido)ethyl)-1H-benzo[d]imidazol-2-yl)(4,4-difluorocyclohexyl)methyl)-1-methyl-1H-pyrazole-5-carboxamide] | – | < 0.05 |
| > 0.1 | C[C@@H](NC(=O)CCC(F)(F)F)c1ccc2nc([C@@H](NC(=O)c3cnn(CCC(F)F)n3)C3CCC(F)(F)CC3)[nH]c2c1 [Example 73, N—((S)-(4,4-Difluorocyclohexyl)(6-((R)-1-(4,4,4-trifluorobutanamido)ethyl)-1H-benzo[d]imidazol-2-yl)methyl)-2-(3,3-difluoropropyl)-2H-1,2,3-triazole-4-carboxamide] | > 0.1 | – |
| > 0.1 | CC(C)n1ncnc1C(=O)NC(CC(C)(C)C(F)(F)F)c1nc2cc([C@@H](C)NC(=O)CCC(F)(F)F)ccc2[nH]1 (single isomer, unassigned) [Example 196, 1-Isopropyl-N—((S*)-4,4,4-trifluoro-3,3-dimethyl-1-(5-((R)-1-(4,4,4-trifluorobutanamido)ethyl)-1H-benzo[d]imidazol-2-yl)butyl)-1H-1,2,4-triazole-5-carboxamide] | > 0.1 | – |
| > 0.1 | C[C@@H](NC(=O)CCC(F)(F)F)c1ccc2[nH]c([C@@H](NC(=O)C3(C)CC3)C3CCC(F)(F)CC3)nc2c1 [Example 95, N—((S)-(4,4-Difluorocyclohexyl)(5-((R)-1-(4,4,4-trifluorobutanamido)ethyl)-1H-benzo[d]imidazol-2-yl)methyl)-1-methylcyclopropane-1-carboxamide] | > 0.1 | – |
| > 0.1 | CC(C(F)F)n1cc(C(=O)N[C@H](c2nc3cc([C@@H](C)NC(=O)CCC(F)(F)F)ccc3[nH]2)C2CCC(F)(F)CC2)nn1 (stereo partly drawn) [Example 85, N—((S)-(4,4-Difluorocyclohexyl)(5-((R)-1-(4,4,4-trifluorobutanamido)ethyl)-1H-benzo[d]imidazol-2-yl)methyl)-1-(1,1-difluoropropan-2-yl)-1H-1,2,3-triazole-4-carboxamide] | > 0.1 | – |
